Data: patent US20250140406A1, “CLASSIFYING TUMORS AND PREDICTING RESPONSIVENESS” (Oncocyte Corporation, priority 2022, published 2025)
Like-named read-outs stand apart in the source and are kept apart here. Square brackets hold non-standard residues; d marks the D form. Peptide text beside a SMILES is read from it. * marks the point of attachment. dPhe(4-NHCONH2) = NC(=O)Nc1ccc(C[C@@H](N)C(=O)O)cc1; Dihydroorotyl(S) = O=C1C[C@@H](C(=O)*)NC(=O)N1; dPhe(4-Cl) = N[C@H](Cc1ccc(Cl)cc1)C(=O)O; Phe(4-NH2) = Nc1ccc(C[C@H](N)C(=O)O)cc1; d2Nal = N[C@H](Cc1ccc2ccccc2c1)C(=O)O; Lys(iPr) = CC(C)NCCCC[C@H](N)C(=O)O; d3Pal = N[C@H](Cc1cccnc1)C(=O)O

Legend:
[1] = tested on: cancer cell lines classified IM, MSL, M; experiment: PRISM screen compound sensitivity correlated with IM, MSL and M subtype of cell lines (101 gene signature); format: cell-based
[2] = tested on: cancer cell lines, DetermaIO classes; experiment: Association of PRISM compound sensitivity with DetermaIO (DTIO) cell line classes; format: cell-based
[3] = correlation of PRISM compound sensitivity with IM subtype correlation, test cell set (188 cell lines)
[4] = correlation of PRISM compound sensitivity with M subtype correlation, test cell set (188 cell lines)
[5] = correlation of PRISM compound sensitivity with MSL subtype correlation, test cell set (188 cell lines)
[6] = correlation of PRISM compound sensitivity with DTIO (DetermaIO), test cell set (188 cell lines)
[7] = correlation of PRISM compound sensitivity with DTIO (DetermaIO), training cell set (371 cell lines)
[8] = correlation of PRISM compound sensitivity with IM subtype correlation, test cell set
[9] = correlation of PRISM compound sensitivity with M subtype correlation, test cell set
[10] = correlation of PRISM compound sensitivity with MSL subtype correlation, test cell set
[11] = correlation of PRISM compound sensitivity with DTIO, test cell set
[12] = correlation of PRISM compound sensitivity with DTIO, training cell set
[13] = subtype (IM, MSL or M) assigned to the compound by negative correlation of PRISM sensitivity with subtype, training cell set (371 cell lines), 101 gene signature
[14] = subtype (IM, MSL or M) with which compound sensitivity is negatively correlated, training cell set (371 cell lines), 101 gene signature
[15] = subtype (IM, MSL or M) with which PRISM compound sensitivity is negatively correlated, training cell set, 101 gene signature

Compound	IM Corr test [1, 3]	M Corr test [1, 4]	MSL Corr test [1, 5]	IM Corr test [1, 8]	M Corr test [1, 9]	MSL Corr test [1, 10]	DTIO Corr test [2, 11]	DTIO Corr train [2, 12]	other results
COc1cc(-c2ccc(N=Nc3ccc4c(S(=O)(=O)[O-])cc(S(=O)(=O)[O-])c(N)c4c3O)c(OC)c2)ccc1N=Nc1ccc2c(S(=O)(=O)[O-])cc(S(=O)(=O)[O-])c(N)c2c1O.[Na+].[Na+].[Na+].[Na+] [chicago-sky-blue-6b]	−0.1701	0.1599	0.184	–	–	–	–	–	DTIO Corr test [2, 6]: −0.07521; DTIO Corr train [2, 7]: −0.1611
CCS(=O)(=O)N(C)[C@H]1c2cc(C#N)ccc2OC(C)(C)[C@@H]1O [chromanol-293B-(−)-[3R,4S]]	–	–	–	−0.09685	0.08774	0.1021	−0.09957	−0.08029	–
Cc1c(Cl)cccc1Nc1ncccc1C(=O)O.NCCCC[C@H](N)C(=O)O [clonixin-lysinate]	–	–	–	–	–	–	–	–	IM Corr test [1]: −0.06378; M Corr test [1]: 0.004709; MSL Corr test [1]: −0.03679; TNBCType train [1]: MSL; DTIO Corr test [2]: −0.01494; DTIO Corr train [2]: −0.00484
CN(CCOP(=O)(O)O)C(=N)N [creatinol-phosphate]	–	–	–	−0.00785	0.001052	−0.06276	0.02757	−0.08518	–
CN[C@@H](C)[C@H]1[C@H](O)C[C@@]2(C)[C@@H]3CC[C@H]4C(C)(C)[C@@H](NC)CC[C@@]45C[C@@]35CC[C@]12C [cyclovirobuxin-d]	–	–	–	0.03318	−0.04158	0.04619	0.02667	0.06721	–
N#CCNC(=O)c1ccc(-c2ccnc(Nc3ccc(N4CCOCC4)cc3)n2)cc1 [cyt387]	0.06763	−0.1142	−0.1416	–	–	–	–	–	TNBCType train [1, 13]: MSL; DTIO Corr test [2, 6]: 0.000569; DTIO Corr train [2, 7]: −0.03421
CC(=O)N[C@H](Cc1ccc2ccccc2c1)C(=O)N[C@H](Cc1ccc(Cl)cc1)C(=O)N[C@H](Cc1cccnc1)C(=O)N[C@@H](CO)C(=O)N[C@@H](Cc1ccc(NC(=O)[C@@H]2CC(=O)NC(=O)N2)cc1)C(=O)N[C@H](Cc1ccc(NC(N)=O)cc1)C(=O)N[C@@H](CC(C)C)C(=O)N[C@@H](CCCCNC(C)C)C(=O)N1CCC[C@H]1C(=O)N[C@H](C)C(N)=O [degarelix] (Ac-[d2Nal][dPhe(4-Cl)][d3Pal]S[Phe(4-NH2)](Dihydroorotyl(S))[dPhe(4-NHCONH2)]L[Lys(iPr)]P[dA]-NH2)	0.000275	−0.03554	−0.05421	–	–	–	−0.01776	0.01996	TNBCType train [1, 14]: MSL
CCN(CC)C(=S)[S-].O.O.O.[Na+] [ditiocarb-sodium-trihydrate]	–	–	–	−0.07988	0.03103	−0.01951	−0.1096	−0.01519	TNBCType train [1, 15]: MSL
C[C@]12N[C@H](Cc3ccccc31)c1ccccc12 [dizocilpine-(−)]	–	–	–	−0.0703	−0.00928	−0.09183	−0.06945	0.02729	TNBCType train [1, 15]: MSL
CC[C@H](C)[C@@H]([C@@H](CC(=O)N1CCC[C@H]1[C@H](OC)[C@@H](C)C(=O)N[C@@H](Cc1ccccc1)c1nccs1)OC)N(C)C(=O)[C@@H](NC(=O)[C@H](C(C)C)N(C)C)C(C)C [dolastatin-10]	−0.05477	0.003299	−0.00011	–	–	–	–	–	TNBCType train [1, 13]: MSL; DTIO Corr test [2, 6]: −0.08086; DTIO Corr train [2, 7]: −0.07579
C[C@H](N[C@@H](CCc1ccccc1)C(=O)O)C(=O)N1CCC[C@H]1C(=O)O [enalaprilat]	0.03404	−0.06381	−0.1038	–	–	–	–	–	TNBCType train ([1]; subtype (IM, MSL or M) the PRISM compound sensitivity is associated with, training cell set (371 cell lines), 101 gene signature): MSL; DTIO Corr test ([2]; correlation of PRISM compound sensitivity with DTIO, test cell set (188 cell lines)): −0.03184; DTIO Corr train ([2]; correlation of PRISM compound sensitivity with DTIO, training cell set (371 cell lines)): 0.0604
C=C1C[C@@H]2[C@H](CC[C@]3(C)C(=O)CC[C@@H]23)[C@@]2(C)C=CC(=O)C=C12 [exemestane]	–	–	–	–	–	–	–	–	IM Corr test [1]: 0.07921; M Corr test [1]: −0.1056; MSL Corr test [1]: −0.04525; DTIO Corr test [2]: 0.03291; DTIO Corr train [2]: 0.03081
CCC(O)(c1ccccc1)c1cccc(C(F)(F)F)c1 (stereo not shown) [flumecinol]	0.06404	−0.06491	−0.09398	–	–	–	0.03786	0.02706	TNBCType train [1, 14]: MSL
